ChEMBL document CHEMBL5316318, “Structural Modification and Pharmacological Evaluation of Substituted Quinoline-5,8-diones as Potent NSD2 Inhibitors” (J Med Chem, 2023)

Experiments:
[1] = target: Histone-lysine N-methyltransferase EZH2 (Homo sapiens, UniProt Q15910); assay: Inhibition of EZH2 (unknown origin) using SAM as substrate preincubated for 10 mins followed by substrate addition and measured after 4 hrs by HTRF analysis
[2] = target: T1, Histone-lysine N-methyltransferase NSD2 (Homo sapiens, UniProt O96028); assay: Inhibition of recombinant human NSD2 (941 to 1240 residues) using SAM as substrate incubated for 3 hrs by AlphaLISA assay
T1 sequence (O96028 whole entry): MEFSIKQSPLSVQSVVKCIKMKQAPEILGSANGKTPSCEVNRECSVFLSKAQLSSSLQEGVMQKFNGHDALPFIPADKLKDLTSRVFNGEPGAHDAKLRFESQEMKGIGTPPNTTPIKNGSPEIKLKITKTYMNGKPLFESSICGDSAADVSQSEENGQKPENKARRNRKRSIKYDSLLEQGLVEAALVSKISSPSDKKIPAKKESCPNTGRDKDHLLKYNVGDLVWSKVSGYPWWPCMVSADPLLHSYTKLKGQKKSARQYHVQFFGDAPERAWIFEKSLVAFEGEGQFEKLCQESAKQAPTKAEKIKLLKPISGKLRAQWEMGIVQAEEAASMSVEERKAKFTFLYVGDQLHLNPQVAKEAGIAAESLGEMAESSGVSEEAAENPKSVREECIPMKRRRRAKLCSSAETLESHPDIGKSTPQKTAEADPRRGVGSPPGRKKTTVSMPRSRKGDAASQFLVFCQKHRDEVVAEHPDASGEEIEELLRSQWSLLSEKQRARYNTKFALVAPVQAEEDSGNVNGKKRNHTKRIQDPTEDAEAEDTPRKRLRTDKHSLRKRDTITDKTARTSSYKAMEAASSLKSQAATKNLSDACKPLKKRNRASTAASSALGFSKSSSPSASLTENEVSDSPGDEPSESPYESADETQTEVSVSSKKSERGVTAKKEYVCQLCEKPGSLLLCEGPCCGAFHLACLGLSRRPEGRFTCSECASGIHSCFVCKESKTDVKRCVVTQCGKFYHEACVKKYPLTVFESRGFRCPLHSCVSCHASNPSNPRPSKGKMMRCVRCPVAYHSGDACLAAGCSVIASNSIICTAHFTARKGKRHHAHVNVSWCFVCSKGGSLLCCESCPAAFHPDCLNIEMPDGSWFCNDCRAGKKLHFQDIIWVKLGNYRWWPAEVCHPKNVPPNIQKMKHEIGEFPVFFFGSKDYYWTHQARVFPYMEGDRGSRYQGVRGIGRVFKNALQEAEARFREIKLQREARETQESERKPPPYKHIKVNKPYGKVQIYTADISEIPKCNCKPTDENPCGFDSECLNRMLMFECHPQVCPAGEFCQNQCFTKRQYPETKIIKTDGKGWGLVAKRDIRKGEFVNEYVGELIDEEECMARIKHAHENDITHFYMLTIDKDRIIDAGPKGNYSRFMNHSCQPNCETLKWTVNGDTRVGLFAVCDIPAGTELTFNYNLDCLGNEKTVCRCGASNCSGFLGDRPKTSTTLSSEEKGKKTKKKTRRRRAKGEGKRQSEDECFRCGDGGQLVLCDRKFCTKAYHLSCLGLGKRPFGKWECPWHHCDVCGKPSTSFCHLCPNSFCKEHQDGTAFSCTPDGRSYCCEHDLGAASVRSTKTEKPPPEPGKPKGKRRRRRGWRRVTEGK

[3] = system: KMS-11; assay: Antiproliferative activity against human KMS-11 cells assessed as inhibition of cell growth incubated for 6 days by CCK-8 assay; assay type: functional, cell-based; conditions: KMS-11, 144 h
[4] = Apparent permeability coefficient, Papp in MDCK cells; assay type: ADME, cell-based, Canis lupus familiaris; conditions: dog
[5] = target: T1, Histone-lysine N-methyltransferase NSD2; assay: Inhibition of human NSD2 (934 to 1241 residues) expressed in Escherichia coli BL21 (DE3) using [3H]-SAM as substrate incubated for 1 hr by TopCount radioactivity counter
[6] = target: T1, Histone-lysine N-methyltransferase NSD2; assay: Inhibition of human NSD2 SET domain (948 to 1239 residues)-mediated mono-methylation activity assessed as reduction in H3K36me1 level incubated for 1 hr
[7] = target: T1, Histone-lysine N-methyltransferase NSD2; assay: Inhibition of human MMSET (973 to 1203 residues) expressed in Escherichia coli BL21 (DE3) using S-adenosyl-methionine as substrate incubated for 60 mins by AlphaScreen assay
[8] = target: Histone-lysine N-methyltransferase NSD3 (Homo sapiens, UniProt Q9BZ95); assay: Inhibition of NSD3 (unknown origin)
[9] = target: T1, Histone-lysine N-methyltransferase NSD2; assay: Inhibition of N-terminal polyhistidine tagged human recombinant NSD2 SET domain (934 to 1241 residues) expressed in Escherichia coli using SAM as substrate preincubated for 30 mins followed by substrate addition and measured after 15 mins by MTase-Glo assay
[10] = Tmax in ICR mouse at 3 mg/kg, po measured for 24 hrs by LC-MS/MS analysis; assay type: ADME, organism-based; conditions: in vivo
[11] = Cmax in ICR mouse at 3 mg/kg, po measured for 24 hrs by LC-MS/MS analysis; assay type: ADME, organism-based; design: dose 3 mg/kg, time 24 hrs, route po; conditions: in vivo
[12] = target: Histone-lysine N-methyltransferase, H3 lysine-36 specific (Homo sapiens, UniProt Q96L73); assay: Inhibition of NSD1 (unknown origin)
[13] = Half life in ICR mouse at 3 mg/kg, po measured for 24 hrs by LC-MS/MS analysis; assay type: ADME, organism-based; conditions: in vivo
[14] = AUClast in ICR mouse at 3 mg/kg, po measured for 24 hrs by LC-MS/MS analysis; assay type: ADME, organism-based; design: dose 3 mg/kg, time 24 hrs, route po; conditions: in vivo
[15] = target: T1, Histone-lysine N-methyltransferase NSD2; assay: Competitive inhibition of NSD2 (unknown origin) using SAM as substrate
[16] = target: T1, Histone-lysine N-methyltransferase NSD2; assay: Inhibition of human NSD2 SET domain-mediated H3K36 methylation using histone H3 as substrate by colorimetric analysis
[17] = Half life in ICR mouse at 1 mg/kg, iv measured for 24 hrs by LC-MS/MS analysis; assay type: ADME, organism-based; conditions: in vivo
[18] = Observed clearance in ICR mouse at 1 mg/kg, iv measured for 24 hrs by LC-MS/MS analysis; assay type: ADME, organism-based; conditions: in vivo
[19] = Oral bioavailability in ICR mouse at 3 mg/kg measured for 24 hrs by LC-MS/MS analysis; assay type: ADME, organism-based; conditions: in vivo
[20] = AUClast in ICR mouse at 1 mg/kg, iv measured for 24 hrs by LC-MS/MS analysis; assay type: ADME, organism-based; design: dose 1 mg/kg, time 24 hrs, route iv; conditions: in vivo

Histone-lysine N-methyltransferase NSD3, sequence (Q9BZ95 whole entry, the tested form may be a part): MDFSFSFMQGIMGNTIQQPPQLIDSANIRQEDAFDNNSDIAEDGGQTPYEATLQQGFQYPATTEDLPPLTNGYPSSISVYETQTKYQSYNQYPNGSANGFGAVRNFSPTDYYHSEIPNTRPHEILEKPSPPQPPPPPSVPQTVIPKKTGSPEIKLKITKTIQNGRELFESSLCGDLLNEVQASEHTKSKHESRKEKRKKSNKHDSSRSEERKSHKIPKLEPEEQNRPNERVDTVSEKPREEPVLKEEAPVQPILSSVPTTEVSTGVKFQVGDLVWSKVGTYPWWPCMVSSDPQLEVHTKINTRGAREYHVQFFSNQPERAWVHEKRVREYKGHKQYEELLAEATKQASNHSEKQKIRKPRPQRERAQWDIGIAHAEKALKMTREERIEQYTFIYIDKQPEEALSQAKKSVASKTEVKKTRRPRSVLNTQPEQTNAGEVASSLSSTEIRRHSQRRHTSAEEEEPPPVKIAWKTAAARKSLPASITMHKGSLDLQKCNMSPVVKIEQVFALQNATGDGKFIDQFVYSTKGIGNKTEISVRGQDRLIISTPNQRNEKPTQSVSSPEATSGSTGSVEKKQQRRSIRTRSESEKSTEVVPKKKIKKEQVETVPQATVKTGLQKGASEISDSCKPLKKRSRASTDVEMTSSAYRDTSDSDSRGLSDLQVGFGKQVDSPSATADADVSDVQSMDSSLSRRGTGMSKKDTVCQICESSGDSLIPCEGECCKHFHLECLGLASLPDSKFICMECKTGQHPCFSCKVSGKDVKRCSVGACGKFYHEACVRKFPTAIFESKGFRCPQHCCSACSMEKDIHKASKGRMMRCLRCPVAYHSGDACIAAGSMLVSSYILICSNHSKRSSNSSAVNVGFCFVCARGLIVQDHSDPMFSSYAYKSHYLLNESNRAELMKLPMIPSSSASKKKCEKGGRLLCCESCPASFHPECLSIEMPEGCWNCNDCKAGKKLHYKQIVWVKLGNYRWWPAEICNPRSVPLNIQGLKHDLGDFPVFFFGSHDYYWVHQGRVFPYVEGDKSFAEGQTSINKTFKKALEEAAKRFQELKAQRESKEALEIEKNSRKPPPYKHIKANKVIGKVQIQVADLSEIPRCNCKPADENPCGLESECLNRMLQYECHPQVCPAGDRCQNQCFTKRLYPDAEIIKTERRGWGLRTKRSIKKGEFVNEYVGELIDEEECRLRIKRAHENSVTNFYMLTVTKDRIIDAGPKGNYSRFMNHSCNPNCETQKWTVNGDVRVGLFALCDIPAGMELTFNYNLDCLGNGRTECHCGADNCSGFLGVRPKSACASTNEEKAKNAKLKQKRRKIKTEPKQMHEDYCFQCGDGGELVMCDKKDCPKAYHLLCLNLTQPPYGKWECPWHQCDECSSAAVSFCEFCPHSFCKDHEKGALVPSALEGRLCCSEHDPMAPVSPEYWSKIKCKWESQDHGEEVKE
Histone-lysine N-methyltransferase, H3 lysine-36 specific, sequence (Q96L73 whole entry): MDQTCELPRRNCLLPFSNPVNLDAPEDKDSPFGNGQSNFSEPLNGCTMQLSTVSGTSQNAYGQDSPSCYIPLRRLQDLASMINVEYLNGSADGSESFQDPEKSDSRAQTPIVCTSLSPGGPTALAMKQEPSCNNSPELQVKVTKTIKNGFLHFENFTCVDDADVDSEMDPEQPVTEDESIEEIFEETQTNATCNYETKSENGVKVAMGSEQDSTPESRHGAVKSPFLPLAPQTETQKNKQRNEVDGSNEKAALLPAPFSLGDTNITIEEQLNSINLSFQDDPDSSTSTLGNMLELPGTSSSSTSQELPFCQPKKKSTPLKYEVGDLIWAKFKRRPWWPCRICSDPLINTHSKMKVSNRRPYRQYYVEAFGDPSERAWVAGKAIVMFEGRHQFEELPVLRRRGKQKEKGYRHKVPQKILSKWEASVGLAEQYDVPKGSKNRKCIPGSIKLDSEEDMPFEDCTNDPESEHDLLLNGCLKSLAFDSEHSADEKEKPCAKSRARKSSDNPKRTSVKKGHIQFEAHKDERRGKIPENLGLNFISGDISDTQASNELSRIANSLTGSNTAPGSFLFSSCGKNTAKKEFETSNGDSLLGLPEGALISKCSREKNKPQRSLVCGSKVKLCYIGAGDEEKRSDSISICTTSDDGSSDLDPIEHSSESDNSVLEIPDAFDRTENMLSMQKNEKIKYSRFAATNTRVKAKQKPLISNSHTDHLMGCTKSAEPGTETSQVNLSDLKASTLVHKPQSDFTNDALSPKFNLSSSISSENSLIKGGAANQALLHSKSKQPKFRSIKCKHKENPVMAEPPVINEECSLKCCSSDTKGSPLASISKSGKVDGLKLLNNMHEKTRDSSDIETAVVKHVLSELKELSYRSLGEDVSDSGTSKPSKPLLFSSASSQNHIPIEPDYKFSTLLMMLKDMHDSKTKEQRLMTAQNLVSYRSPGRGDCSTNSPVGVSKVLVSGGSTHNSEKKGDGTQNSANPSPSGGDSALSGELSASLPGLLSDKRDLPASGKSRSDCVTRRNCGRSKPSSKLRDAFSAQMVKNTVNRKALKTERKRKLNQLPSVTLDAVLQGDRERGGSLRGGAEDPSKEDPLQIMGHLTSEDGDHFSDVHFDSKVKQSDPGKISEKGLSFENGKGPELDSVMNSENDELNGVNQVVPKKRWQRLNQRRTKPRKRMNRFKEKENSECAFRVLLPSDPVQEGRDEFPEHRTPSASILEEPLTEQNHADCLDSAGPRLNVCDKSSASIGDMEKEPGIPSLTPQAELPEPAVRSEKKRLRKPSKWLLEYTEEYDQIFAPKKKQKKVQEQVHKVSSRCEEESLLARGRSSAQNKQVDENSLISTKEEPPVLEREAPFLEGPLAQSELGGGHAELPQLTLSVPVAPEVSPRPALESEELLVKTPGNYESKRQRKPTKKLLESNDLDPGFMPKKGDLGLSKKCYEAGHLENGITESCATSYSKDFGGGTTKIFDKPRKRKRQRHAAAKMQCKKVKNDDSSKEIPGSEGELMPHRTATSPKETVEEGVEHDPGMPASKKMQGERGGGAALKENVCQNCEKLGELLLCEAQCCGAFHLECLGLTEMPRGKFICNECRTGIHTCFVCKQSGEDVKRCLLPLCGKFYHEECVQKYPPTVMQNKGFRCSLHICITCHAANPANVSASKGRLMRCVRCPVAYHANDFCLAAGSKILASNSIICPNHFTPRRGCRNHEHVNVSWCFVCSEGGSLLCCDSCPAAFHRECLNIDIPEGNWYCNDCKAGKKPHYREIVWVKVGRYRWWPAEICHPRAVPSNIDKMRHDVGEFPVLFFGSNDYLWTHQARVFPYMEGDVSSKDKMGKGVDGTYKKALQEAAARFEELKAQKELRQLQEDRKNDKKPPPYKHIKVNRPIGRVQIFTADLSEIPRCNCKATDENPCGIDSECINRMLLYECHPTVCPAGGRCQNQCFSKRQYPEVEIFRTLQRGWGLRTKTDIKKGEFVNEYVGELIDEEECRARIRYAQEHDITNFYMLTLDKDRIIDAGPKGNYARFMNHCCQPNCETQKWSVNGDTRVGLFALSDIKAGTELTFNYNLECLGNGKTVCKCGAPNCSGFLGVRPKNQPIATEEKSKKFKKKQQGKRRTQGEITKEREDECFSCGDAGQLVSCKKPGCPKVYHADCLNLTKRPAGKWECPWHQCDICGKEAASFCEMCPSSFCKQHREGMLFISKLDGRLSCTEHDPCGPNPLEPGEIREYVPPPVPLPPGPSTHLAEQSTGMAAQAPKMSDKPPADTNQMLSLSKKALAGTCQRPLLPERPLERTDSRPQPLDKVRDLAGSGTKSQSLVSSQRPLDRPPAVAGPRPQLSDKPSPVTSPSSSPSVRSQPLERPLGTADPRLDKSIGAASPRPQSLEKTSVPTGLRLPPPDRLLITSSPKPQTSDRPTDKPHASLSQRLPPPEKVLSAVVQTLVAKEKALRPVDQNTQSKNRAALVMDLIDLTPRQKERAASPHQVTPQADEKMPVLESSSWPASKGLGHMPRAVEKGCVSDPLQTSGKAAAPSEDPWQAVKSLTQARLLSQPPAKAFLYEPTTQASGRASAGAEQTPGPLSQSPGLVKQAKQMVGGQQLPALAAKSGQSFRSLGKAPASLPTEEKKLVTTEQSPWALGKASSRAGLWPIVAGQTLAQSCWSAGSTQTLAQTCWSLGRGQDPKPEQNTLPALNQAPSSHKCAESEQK
Histone-lysine N-methyltransferase EZH2, sequence (Q15910 whole entry, the tested form may be a part): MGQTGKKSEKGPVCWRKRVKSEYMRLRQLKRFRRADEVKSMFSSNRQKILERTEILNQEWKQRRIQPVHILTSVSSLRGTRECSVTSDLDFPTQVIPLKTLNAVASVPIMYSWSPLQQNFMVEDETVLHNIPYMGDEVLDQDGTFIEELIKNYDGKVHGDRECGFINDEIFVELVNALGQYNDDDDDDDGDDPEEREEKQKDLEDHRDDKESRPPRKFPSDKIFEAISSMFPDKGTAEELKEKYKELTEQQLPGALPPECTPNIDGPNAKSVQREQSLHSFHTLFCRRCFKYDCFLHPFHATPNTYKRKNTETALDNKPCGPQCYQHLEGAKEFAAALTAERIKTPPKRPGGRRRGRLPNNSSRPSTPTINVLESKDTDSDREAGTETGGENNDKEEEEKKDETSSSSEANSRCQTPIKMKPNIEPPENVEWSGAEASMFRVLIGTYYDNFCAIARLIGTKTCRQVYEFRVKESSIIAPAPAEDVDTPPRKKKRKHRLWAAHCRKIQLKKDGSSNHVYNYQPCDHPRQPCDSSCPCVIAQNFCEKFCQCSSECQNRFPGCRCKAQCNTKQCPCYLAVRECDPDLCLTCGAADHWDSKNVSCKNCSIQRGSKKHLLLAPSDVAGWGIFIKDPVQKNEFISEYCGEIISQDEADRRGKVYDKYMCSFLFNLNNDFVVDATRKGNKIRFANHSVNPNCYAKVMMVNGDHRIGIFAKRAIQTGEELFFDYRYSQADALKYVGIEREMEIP

## CC#CC(=O)NC12CC(NC3=C(Cl)C(=O)c4cccnc4C3=O)(C1)C2
[1]
  IC50: 1040 nM
[2]
  IC50: 250 nM
[3]
  IC50: 2210 nM
[4]
  Papp: 42 ×10⁻⁶ cm/s

## O=C1C(NCCN2CCOCC2)=C(Cl)C(=O)c2ncccc21
[2]
  IC50: 490 nM

## CC#CC(=O)NC1CN(C2=C(Cl)C(=O)c3cccnc3C2=O)C1
[2]
  IC50: 310 nM

## CC(F)(F)C(=O)NC1CN(C2=C(Cl)C(=O)c3cccnc3C2=O)C1
[2]
  IC50: 470 nM

## CC(F)(F)C(=O)NCCC1CN(C2=C(Cl)C(=O)c3ncccc3C2=O)C1
[2]
  IC50: 380 nM

## C[C@@](O)(C(=O)N1CCC(O)(CCNC2=C(Cl)C(=O)c3ncccc3C2=O)CC1)C(F)(F)F
[2]
  IC50: 990 nM

## CC#CC(=O)N1CCC2(CC1)CN(C1=C(Cl)C(=O)c3ncccc3C1=O)C2
[2]
  IC50: 2480 nM

## CC(F)(F)C(=O)NCCC1CN(C2=C(Cl)C(=O)c3cccnc3C2=O)C1
[2]
  IC50: 380 nM

## O=C1C(Cl)=C(NC2CCc3ccccc32)C(=O)c2ncccc21 (stereo not drawn)
[2]
  IC50: 210 nM
[3]
  IC50: 2520 nM
[4]
  Papp: 28.8 ×10⁻⁶ cm/s

## CCN(c1cc(-c2ccc(CN3CCOCC3)cc2)cc(C(=O)NCc2c(C)cc(C)[nH]c2=O)c1C)C1CCOCC1 [TAZEMETOSTAT]
[3]
  IC50: > 20000 nM

## O=C1C(Cl)=C(NC23CC(NC(=O)C4CC4(F)F)(C2)C3)C(=O)c2ncccc21 (stereo not drawn)
[2]
  IC50: 410 nM

## C[C@@](O)(C(=O)NC12CC(NC3=CC(=O)c4ncccc4C3=O)(C1)C2)C(F)(F)F
[2]
  IC50: 1290 nM

## CC(C)(O)[C@H](F)CNC1=C(Cl)C(=O)c2ccc(Cl)nc2C1=O
[2]
  IC50: 250 nM
[3]
  IC50: 6070 nM
[4]
  Papp: 29 ×10⁻⁶ cm/s

## CC(F)(F)C(=O)NCCC1CCN(C2=C(Cl)C(=O)c3ncccc3C2=O)CC1
[2]
  IC50: 1350 nM

## O=C1C(NC2CCc3ccccc32)=C(Cl)C(=O)c2ncccc21 (stereo not drawn)
[2]
  IC50: 450 nM

## CC#CC(=O)NCCC1CCN(C2=C(Cl)C(=O)c3ncccc3C2=O)CC1
[2]
  IC50: 490 nM

## Nc1ncnc2c1ncn2[C@@H]1O[C@H](C[C@@H](N)CC[C@H](N)C(=O)O)[C@@H](O)[C@H]1O [SINEFUNGIN]
[5]
  IC50: 79000 nM

## CC(C)(O)[C@H](F)CNC1=C(Cl)C(=O)c2ncccc2C1=O
[2]
  IC50: 1310 nM

## CC(C)(O)[C@H](F)CNC1=C(Cl)C(=O)c2ccc(N3C[C@@H](O)[C@H](O)C3)nc2C1=O
[2]
  IC50: 1220 nM

## CC(C)(O)[C@H](F)CNC1=C(Cl)C(=O)c2ccc(N3CCC(F)(F)C3)nc2C1=O
[2]
  IC50: 930 nM

## COc1cc2nc(N3CCCN(C)CC3)nc(NC3CCN(Cc4ccccc4)CC3)c2cc1OC
[6]
  IC50: 41000 nM

## O=C1C(NCCc2c[nH]c3ccccc23)=C(Cl)C(=O)c2ncccc21
[2]
  IC50: 2290 nM

## CCCN[C@@H](CC[C@H](N)C(=O)O)C[C@H]1O[C@@H](n2cnc3c(N)ncnc32)[C@H](O)[C@@H]1O
[7]
  IC50: 3300 nM

## O=C1C(NC23CC(NC(=O)C4CC4(F)F)(C2)C3)=C(Cl)C(=O)c2ncccc21 (stereo not drawn)
[2]
  IC50: 1460 nM

## CC(F)(F)C(=O)NCCC1CCN(C2=C(Cl)C(=O)c3cccnc3C2=O)CC1
[2]
  IC50: 2340 nM

## O=C1C(Cl)=C(NCCN2CCOCC2)C(=O)c2ncccc21
[8]
  IC50: 340 nM
[2]
  IC50: 230 nM
[9]
  IC50: 170 nM
[10]
  Tmax: 19.8 min
[3]
  IC50: 1430 nM
[4]
  Papp: 31.2 ×10⁻⁶ cm/s
[11]
  Cmax: 21.1 ng/mL
[12]
  IC50: 150 nM
[13]
  half-life: 34.2 min
[14]
  AUC(0-t) at 24 h: 14.5 ng·h/mL

## NNc1nc2ccccc2nc1S
[15]
  IC50: < 3000 nM

## CC#CC(=O)N1CCC2(CC1)CN(C1=C(Cl)C(=O)c3cccnc3C1=O)C2
[2]
  IC50: 760 nM

## O=C1O[C@@H](C(=O)N2CCN(Cc3nc4sc5c(c4c(=O)[nH]3)CCCC5)CC2)Cc2ccccc21
[16]
  IC50: 132000 nM

## CC(F)(F)C(=O)N1CCC2(CC1)CN(C1=C(Cl)C(=O)c3ncccc3C1=O)C2
[2]
  IC50: 3050 nM

## CC(C)(O)[C@H](F)CNC1=C(Cl)C(=O)c2ccc(N3CCCC3)nc2C1=O
[2]
  IC50: 360 nM

## CC(C)(O)[C@H](F)CNC1=C(Cl)C(=O)c2cccnc2C1=O
[2]
  IC50: 300 nM
[3]
  IC50: 1680 nM
[4]
  Papp: 30.8 ×10⁻⁶ cm/s

## CC(C)(O)[C@H](F)CNC1=C(Cl)C(=O)c2ccc(N3CC(O)C3)nc2C1=O
[2]
  IC50: > 10000 nM

## CC#CC(=O)NCCC1CCN(C2=C(Cl)C(=O)c3cccnc3C2=O)CC1
[2]
  IC50: 1710 nM

## O=C1C(Cl)=C(NCCC2(O)CCN(C(=O)C3CC3(F)F)CC2)C(=O)c2ncccc21 (stereo not drawn)
[2]
  IC50: 200 nM
[3]
  IC50: 3940 nM
[4]
  Papp: 21.5 ×10⁻⁶ cm/s

## CC(F)(F)C(=O)NC12CC(NC3=C(Cl)C(=O)c4cccnc4C3=O)(C1)C2
[2]
  IC50: 300 nM
[3]
  IC50: 2400 nM
[4]
  Papp: 44.4 ×10⁻⁶ cm/s

## CC(F)(F)C(=O)NC1CN(C2=C(Cl)C(=O)c3ncccc3C2=O)C1
[2]
  IC50: 360 nM

## CC(F)(F)C(=O)NC12CC(NC3=C(Cl)C(=O)c4ncccc4C3=O)(C1)C2
[17]
  half-life: 115 min
[18]
  clearance: 33.4 mL/min/kg
[2]
  IC50: 330 nM
[19]
  bioavailability: 53.1%
[20]
  AUC(0-t) at 24 h: 476 ng·h/mL
[10]
  Tmax: 25.2 min
[3]
  IC50: 350 nM
[4]
  Papp: 49.4 ×10⁻⁶ cm/s
[11]
  Cmax: 707 ng/mL
[13]
  half-life: 307 min
[14]
  AUC(0-t) at 24 h: 758 ng·h/mL

## O=C1C(NCCC2(O)CCN(C(=O)C3CC3(F)F)CC2)=C(Cl)C(=O)c2ncccc21 (stereo not drawn)
[2]
  IC50: 1280 nM

## C[C@@](O)(C(=O)NC12CC(NC3=C(Cl)C(=O)c4cccnc4C3=O)(C1)C2)C(F)(F)F
[2]
  IC50: 420 nM

## C[C@@](O)(C(=O)N1CCC(O)(CCNC2=C(Cl)C(=O)c3cccnc3C2=O)CC1)C(F)(F)F
[2]
  IC50: 240 nM
[3]
  IC50: 8100 nM
[4]
  Papp: 17.8 ×10⁻⁶ cm/s

## O=C1C(Cl)=C(NCCc2c[nH]c3ccccc23)C(=O)c2ncccc21
[2]
  IC50: 450 nM

## CC(F)(F)C(=O)N1CCC2(CC1)CN(C1=C(Cl)C(=O)c3cccnc3C1=O)C2
[2]
  IC50: 330 nM

## CC#CC(=O)NC1CN(C2=C(Cl)C(=O)c3ncccc3C2=O)C1
[2]
  IC50: 590 nM
